Blank lines part the entries; values can stand above or below the compound they belong to.
Key:
[1] = system: HL-60 (promyelocytic leukemia); assay: MTT cell proliferation assay, HL-60; assay type: cell-based; conditions: Homo sapiens, HL-60, 72 h of exposition, read-out: Anti-proliferative activity IC50, HL-60
Method: (§1) Tests to determine the effects of the synthesized compounds on cell viability and the half-maximal inhibitory concentration (IC50) were performed using the MTT assay, as described in our prior work.
(§2) The target compounds 5, 6, 8–12, 14, 15, 17–22 and 24–26 were tested for antiproliferative activity against six cancer cell lines: K562 (chronic myelogenous leukemia), HL-60 (promyelocytic leukemia), MCF-7 (breast adenocarcinoma), HepG2 (human liver cancer), A549 (lung carcinoma) and OKP-GS (renal cell carcinoma). The RPMI 1788 cells (B lymphocyte, human) were used as a control to evaluate the system toxicity of the studied compounds to normal cells. Sorafenib, nilotinib and lapatinib were utilized as reference standards for comparison.

[2] = system: HepG2 (human liver cancer); assay: MTT cell proliferation assay, HepG2; assay type: cell-based; conditions: Homo sapiens, HepG2, 72 h, HepG2, 72 h of exposition, read-out: Anti-proliferative activity IC50, HepG2
Method: as §1, §2

[3] = system: MCF-7 (breast adenocarcinoma); assay: MTT cell proliferation assay, MCF-7; assay type: cell-based; conditions: Homo sapiens, MCF7, MCF-7, 72 h of exposition, read-out: Anti-proliferative activity IC50, MCF-7
Method: as §1, §2

[4] = system: OKP-GS (renal cell carcinoma); assay: MTT cell proliferation assay, OKP-GS; assay type: cell-based; conditions: 72 h of exposition, read-out: Anti-proliferative activity IC50, OKP-GS
Method: as §1, §2

[5] = system: cancer cell lines (K562, HL-60, MCF-7, HepG2, A549, OKP-GS); assay: MTT cell proliferation assay, statements over the whole cell line panel; assay type: cell-based; conditions: statement over the cell line panel, studied concentration range up to 50 µM
Method: as §1, §2

[6] = system: RPMI 1788 cells (B lymphocyte, human); assay: MTT cell proliferation assay, normal RPMI 1788 cells; assay type: cell-based; conditions: normal human lymphoblastoid cells RPMI 1788, 72 h of exposition, read-out: Anti-proliferative activity IC50, RPMI 1788
Method: as §1, §2

A549 (lung carcinoma) = assay: MTT cell proliferation assay, A549; assay type: cell-based; conditions: Homo sapiens, A549, 72 h of exposition, read-out: Anti-proliferative activity IC50, A549
Method: as §1, §2

[7] = system: K562 (chronic myelogenous leukemia); assay: MTT cell proliferation assay, K562; assay type: cell-based; conditions: Homo sapiens, K562, 72 h of exposition, read-out: Anti-proliferative activity IC50, K562
Method: as §1, §2

K562 cells [8] = assay: Cell cycle analysis (propidium iodide, flow cytometry); assay type: cell-based; conditions: 48 h
Method: Tumor cells were seeded on a 6-well plate at a density of 400,000 per well for K562. Test compounds 5, 14 and 15 were added at concentrations of 1, 5 and 10 μM in duplicate for 48 h. The methodology and analysis of the obtained data were performed as described in our prior work.
As shown above, compounds 5, 14 and 15 had significant antiproliferative activities, which is why their influences on the cell cycle and apoptosis level were determined, with the aim of understanding whether these effects are cytostatic or cytotoxic. In the cell cycle experiments, K562 cells were used. […] For the determination of changes in the distribution of cells in the phases of the cell cycle, the widely employed method of staining the cells with propidium iodide was used.

PDGFRα = target: T1, PDGFRα (Homo sapiens, UniProt P16234); assay: ADP-Glo kinase assay, PDGFRα; assay type: biochemical
T1 construct: purchased Promega
Method: (§3) The ADP-Glo kinase assay (Promega, Madison, WI, USA) was used to screen compounds 5, 8–10, 14, 17, 19 and 24 for the tyrosine kinase (Kinase Selectivity Profiling System TK-1, Promega, Madison, WI, USA) and serine/threonine kinase (Kinase Selectivity Profiling System Other/CK-1, Promega, Madison, WI, USA) inhibition effects according to the manufacturer’s technical manual. The luminescence data were analyzed as described in our prior work.
(§4) The selectivity of the potential kinase inhibitor against a specific protein kinase or a specific family of kinases was investigated using the Kinase Selectivity Profiling System TK-1, Other/CK-1 and ADP-Glo™ Kinase assay kit (Promega, Madison, WI, USA).

HER4 = target: T2, HER4 (Homo sapiens, UniProt Q15303); assay: ADP-Glo kinase assay, HER4; assay type: biochemical
T2 construct: purchased Promega
Method: as §3, §4

EGFR = target: T3, EGFR (Homo sapiens, UniProt P00533); assay: ADP-Glo kinase assay, EGFR; assay type: biochemical
T3 construct: purchased Promega

K562 cells [9] = assay: Annexin V-FITC/PI apoptosis assay; assay type: cell-based; conditions: 48 h
Method: K562 tumor cells were plated on a 6-well plate at a density of 400,000 per well. Test compounds 5, 14 and 15 were added at concentrations of 1, 5 and 10 μM in duplicate for 48 h. The methodology and analysis of the obtained data were performed as described in our prior work.
The effects of compounds 5, 14 and 15 on cell apoptosis were examined using the Annexin V-FITC Kit (Beckman Coulter, Brea, CA, USA) according to the protocols provided. The Annexin V-FITC Kit is an apoptosis detection kit based on the binding properties of annexin V to phosphatidylserine (PS) and on the DNA intercalating capability of propidium iodide (PI). K562 cells were treated with compound 5, 14 and 15 at 1, 5 and 10 μM for 48 h, after which annexin V/PI binding was measured by flow cytometry.

KDR (VEGFR-2) = target: T4, KDR (VEGFR-2) (Homo sapiens, UniProt P35968); assay: ADP-Glo kinase assay, KDR; assay type: biochemical
T4 construct: purchased Promega
T4 sequence (P35968 20-1356): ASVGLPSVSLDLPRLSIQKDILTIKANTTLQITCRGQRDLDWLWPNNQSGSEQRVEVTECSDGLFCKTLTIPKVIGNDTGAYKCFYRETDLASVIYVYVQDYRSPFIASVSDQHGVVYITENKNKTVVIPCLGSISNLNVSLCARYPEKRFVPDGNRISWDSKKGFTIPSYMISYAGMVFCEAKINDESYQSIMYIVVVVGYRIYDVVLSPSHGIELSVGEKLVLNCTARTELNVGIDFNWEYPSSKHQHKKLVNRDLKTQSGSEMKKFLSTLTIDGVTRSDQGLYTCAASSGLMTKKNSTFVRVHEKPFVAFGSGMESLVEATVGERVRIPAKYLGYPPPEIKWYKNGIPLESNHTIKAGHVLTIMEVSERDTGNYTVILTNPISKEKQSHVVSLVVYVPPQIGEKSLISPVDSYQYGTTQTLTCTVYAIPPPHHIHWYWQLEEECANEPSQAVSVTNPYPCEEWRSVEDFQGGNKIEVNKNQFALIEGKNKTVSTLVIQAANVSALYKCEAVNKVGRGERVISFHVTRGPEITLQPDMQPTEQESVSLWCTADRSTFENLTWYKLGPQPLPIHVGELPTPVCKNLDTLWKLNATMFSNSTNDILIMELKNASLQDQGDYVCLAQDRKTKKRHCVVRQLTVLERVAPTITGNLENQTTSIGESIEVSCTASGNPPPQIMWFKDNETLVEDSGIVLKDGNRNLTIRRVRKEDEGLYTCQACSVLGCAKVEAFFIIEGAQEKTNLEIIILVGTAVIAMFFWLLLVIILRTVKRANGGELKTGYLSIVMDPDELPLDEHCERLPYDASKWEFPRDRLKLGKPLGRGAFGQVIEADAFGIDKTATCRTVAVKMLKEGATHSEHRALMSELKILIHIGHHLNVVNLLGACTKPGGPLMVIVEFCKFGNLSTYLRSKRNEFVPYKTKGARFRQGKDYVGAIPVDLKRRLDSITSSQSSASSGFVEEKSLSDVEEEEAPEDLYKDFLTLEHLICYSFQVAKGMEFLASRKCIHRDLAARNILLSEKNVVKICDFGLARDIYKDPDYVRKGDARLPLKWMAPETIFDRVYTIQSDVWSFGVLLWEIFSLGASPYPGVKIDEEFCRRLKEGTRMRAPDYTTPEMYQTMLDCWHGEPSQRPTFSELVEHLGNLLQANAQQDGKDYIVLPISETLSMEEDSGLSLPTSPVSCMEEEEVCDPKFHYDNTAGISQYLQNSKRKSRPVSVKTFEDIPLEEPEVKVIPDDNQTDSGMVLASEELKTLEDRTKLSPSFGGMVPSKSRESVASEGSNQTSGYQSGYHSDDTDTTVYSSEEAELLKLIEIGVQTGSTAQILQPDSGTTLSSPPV

Aurora A = target: T5, Aurora A (Homo sapiens, UniProt O14965); assay: ADP-Glo kinase assay, Aurora A; assay type: biochemical
T5 construct: purchased Promega
T5 sequence (O14965 1-403): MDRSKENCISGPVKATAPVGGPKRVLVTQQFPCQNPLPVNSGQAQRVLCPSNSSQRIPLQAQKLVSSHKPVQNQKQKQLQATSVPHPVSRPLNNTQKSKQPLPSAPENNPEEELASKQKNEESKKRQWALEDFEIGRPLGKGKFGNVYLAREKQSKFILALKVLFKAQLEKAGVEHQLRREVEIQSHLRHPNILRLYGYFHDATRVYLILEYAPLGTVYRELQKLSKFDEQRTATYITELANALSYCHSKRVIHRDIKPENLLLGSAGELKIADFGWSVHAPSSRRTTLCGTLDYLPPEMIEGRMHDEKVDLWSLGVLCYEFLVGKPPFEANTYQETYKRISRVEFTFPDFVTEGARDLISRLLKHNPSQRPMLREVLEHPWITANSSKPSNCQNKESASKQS
Method: as §3, §4

HER2 = target: T6, HER2 (Homo sapiens, UniProt P04626); assay: ADP-Glo kinase assay, HER2; assay type: biochemical
T6 construct: purchased Promega
Method: as §3, §4

Aurora B = target: T7, Aurora B (Homo sapiens, UniProt Q96GD4); assay: ADP-Glo kinase assay, Aurora B; assay type: biochemical
T7 construct: purchased Promega
T7 sequence (Q96GD4 whole entry): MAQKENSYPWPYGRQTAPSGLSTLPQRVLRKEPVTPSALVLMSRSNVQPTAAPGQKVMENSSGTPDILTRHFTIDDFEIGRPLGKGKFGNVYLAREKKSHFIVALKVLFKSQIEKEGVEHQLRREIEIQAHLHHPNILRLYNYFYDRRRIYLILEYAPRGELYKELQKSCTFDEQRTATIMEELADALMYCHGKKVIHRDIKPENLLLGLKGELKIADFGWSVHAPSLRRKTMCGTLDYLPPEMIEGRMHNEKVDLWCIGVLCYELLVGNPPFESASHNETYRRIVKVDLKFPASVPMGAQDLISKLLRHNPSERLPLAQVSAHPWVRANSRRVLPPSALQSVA
Method: as §3, §4

InsR (insulin receptor) = target: T8, InsR (insulin receptor) (Homo sapiens, UniProt P06213); assay: ADP-Glo kinase assay, InsR; assay type: biochemical
T8 construct: purchased Promega
T8 sequence (P06213 28-1382): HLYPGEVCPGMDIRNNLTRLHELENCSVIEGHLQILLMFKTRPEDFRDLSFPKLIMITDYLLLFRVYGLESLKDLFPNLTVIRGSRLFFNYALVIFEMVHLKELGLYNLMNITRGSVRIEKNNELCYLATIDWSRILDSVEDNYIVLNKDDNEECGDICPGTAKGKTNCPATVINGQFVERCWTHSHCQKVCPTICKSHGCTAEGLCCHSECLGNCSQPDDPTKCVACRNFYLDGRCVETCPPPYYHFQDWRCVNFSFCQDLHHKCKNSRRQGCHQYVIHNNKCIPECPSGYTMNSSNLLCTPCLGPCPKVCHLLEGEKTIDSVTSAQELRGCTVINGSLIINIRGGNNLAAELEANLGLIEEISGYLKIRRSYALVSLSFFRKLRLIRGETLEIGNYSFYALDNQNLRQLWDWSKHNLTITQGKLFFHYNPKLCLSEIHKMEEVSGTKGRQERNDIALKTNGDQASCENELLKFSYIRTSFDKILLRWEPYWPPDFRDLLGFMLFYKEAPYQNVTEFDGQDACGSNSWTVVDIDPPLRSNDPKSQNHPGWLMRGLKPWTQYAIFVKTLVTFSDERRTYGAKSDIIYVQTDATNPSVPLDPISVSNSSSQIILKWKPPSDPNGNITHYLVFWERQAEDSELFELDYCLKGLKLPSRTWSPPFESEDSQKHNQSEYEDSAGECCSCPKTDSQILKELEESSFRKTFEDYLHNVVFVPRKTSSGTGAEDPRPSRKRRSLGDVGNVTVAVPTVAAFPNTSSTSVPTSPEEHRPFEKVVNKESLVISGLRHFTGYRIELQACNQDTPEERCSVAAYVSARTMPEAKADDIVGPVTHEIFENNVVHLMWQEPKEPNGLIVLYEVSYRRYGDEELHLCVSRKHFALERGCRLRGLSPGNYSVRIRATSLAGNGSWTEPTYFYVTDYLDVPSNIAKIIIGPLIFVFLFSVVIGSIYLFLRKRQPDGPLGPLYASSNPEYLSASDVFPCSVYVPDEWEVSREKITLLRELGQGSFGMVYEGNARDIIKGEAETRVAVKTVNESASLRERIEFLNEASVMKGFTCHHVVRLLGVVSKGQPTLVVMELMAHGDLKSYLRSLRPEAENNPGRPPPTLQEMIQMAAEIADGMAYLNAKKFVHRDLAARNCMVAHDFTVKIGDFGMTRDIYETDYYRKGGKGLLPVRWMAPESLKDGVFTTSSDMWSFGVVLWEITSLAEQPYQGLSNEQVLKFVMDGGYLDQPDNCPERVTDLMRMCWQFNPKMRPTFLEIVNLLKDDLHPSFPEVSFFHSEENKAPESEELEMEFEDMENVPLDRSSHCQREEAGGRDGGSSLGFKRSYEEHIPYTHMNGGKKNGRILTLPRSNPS
Method: as §3, §4

PDGFRβ = target: T9, PDGFRβ (Homo sapiens, UniProt P09619); assay: ADP-Glo kinase assay, PDGFRβ; assay type: biochemical
T9 construct: purchased Promega
T9 sequence (P09619 33-1106): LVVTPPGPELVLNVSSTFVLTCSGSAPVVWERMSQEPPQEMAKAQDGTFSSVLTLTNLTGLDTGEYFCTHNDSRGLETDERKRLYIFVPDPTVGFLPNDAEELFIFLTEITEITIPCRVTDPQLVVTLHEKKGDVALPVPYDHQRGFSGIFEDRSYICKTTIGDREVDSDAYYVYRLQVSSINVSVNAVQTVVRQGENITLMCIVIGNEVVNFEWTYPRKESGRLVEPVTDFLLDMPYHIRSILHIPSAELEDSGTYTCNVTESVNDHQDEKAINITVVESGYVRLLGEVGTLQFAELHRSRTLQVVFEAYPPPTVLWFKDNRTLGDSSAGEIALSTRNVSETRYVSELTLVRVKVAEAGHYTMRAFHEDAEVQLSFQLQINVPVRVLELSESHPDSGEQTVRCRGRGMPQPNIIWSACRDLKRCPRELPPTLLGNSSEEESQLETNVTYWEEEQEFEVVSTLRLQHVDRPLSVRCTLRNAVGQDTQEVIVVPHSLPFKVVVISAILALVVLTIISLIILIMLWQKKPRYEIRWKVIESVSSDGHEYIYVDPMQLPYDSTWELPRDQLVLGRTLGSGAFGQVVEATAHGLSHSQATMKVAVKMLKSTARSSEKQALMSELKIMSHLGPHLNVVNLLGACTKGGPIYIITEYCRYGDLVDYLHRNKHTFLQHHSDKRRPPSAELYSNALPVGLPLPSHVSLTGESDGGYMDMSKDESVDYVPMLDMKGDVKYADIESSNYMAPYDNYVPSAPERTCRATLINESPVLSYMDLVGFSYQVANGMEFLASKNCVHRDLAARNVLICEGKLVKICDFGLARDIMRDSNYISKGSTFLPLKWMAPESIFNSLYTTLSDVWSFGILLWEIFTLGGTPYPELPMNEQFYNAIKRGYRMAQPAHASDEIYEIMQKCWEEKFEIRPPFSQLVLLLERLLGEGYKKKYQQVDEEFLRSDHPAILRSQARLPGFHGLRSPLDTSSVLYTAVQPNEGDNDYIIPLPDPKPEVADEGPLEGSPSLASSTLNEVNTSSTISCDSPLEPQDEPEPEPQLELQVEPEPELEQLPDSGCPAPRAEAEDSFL
Method: as §3, §4

[10] = target: T10, IGF1R (insulin-like growth factor 1 receptor) (Homo sapiens, UniProt P08069); assay: ADP-Glo kinase assay, IGF1R; assay type: biochemical
T10 construct: purchased Promega
Method: as §3, §4

K562 cell line = assay: ROS determination (DCFH-DA, flow cytometry); assay type: cell-based; conditions: 48 h
Method: The redox status was assessed using the K562 cell line. […] Then, the cells were washed to remove the 2′,7′-dichlorodihydrofluorescein diacetate by centrifugation at 1000 rpm for 5 min. The measurements were conducted using a Cytomics FC500 Beckman Coulter flow cytometer (FL1 channel for DCF).

- melting point: 313 to 315 °C
- IC50 [1]: > 50 µM
- IC50 [2]: > 50 µM
- IC50 [3]: > 50 µM
- IC50 [4]: 26.5 ± 3.65 µM
- IC50 (A549 (lung carcinoma)): > 50 µM
- IC50 [7]: > 50 µM
SMILES: CNC(=O)c1cc(Oc2ccc(NC(=O)c3cccc(C(=O)Nc4cc(-n5cnc(C)c5)cc(C(F)(F)F)c4)c3)cc2)ccn1 [Compound 11, N1-(3-(4-methyl-1H-imidazol-1-yl)-5-(trifluoromethyl)phenyl)-N3-(4-((2-(methylcarbamoyl)pyridin-4-yl)oxy)phenyl)isophthalamide]
- Antiproliferative activity (IC50) over the studied cell cultures [5]: lack of sensitivity of the cancer cells in the studied concentration range
- IC50 [6]: 21.9 ± 0.44 µM

- melting point: 135 to 138 °C
- inhibition at 10 µM (PDGFRα): 24%
- inhibition at 10 µM (HER4): 0%
- IC50 [1]: 32.5 ± 1.5 µM
- IC50 [2]: 44.1 ± 4.19 µM
- inhibition at 10 µM (EGFR): 21%
- inhibition at 10 µM (KDR (VEGFR-2)): 26%
- IC50 [3]: 27.3 ± 0.16 µM
- inhibition at 10 µM (Aurora A): 0%
- inhibition at 10 µM (HER2): 14%
- IC50 [4]: > 50 µM
- inhibition at 10 µM (Aurora B): 7%
- inhibition at 10 µM (InsR (insulin receptor)): 0%
- inhibition at 10 µM (PDGFRβ): 23%
- IC50 (A549 (lung carcinoma)): > 50 µM
- IC50 [7]: 7.71 ± 2.84 µM
- inhibition at 10 µM [10]: 0%
SMILES: Cc1cn(-c2cc(NC(=O)c3cccc(C(=O)N4CCN(C(=O)c5ccccc5F)CC4)c3)cc(C(F)(F)F)c2)cn1 [Compound 14, 3-(4-(2-Fluorobenzoyl)piperazine-1-carbonyl)-N-(3-(4-methyl-1H-imidazol-1-yl)-5-(trifluoromethyl)phenyl)benzamide]
- Apoptosis, % (cell cycle analysis) (K562 cells [8]; K562, 1 µM): 14.28%
- G1, % (K562 cells [8]; K562, 1 µM): 32.65%
- G2/M, % (K562 cells [8]; K562, 1 µM): 46.95%
- S, % (K562 cells [8]; K562, 1 µM): 20.41%
- Apoptosis, % (cell cycle analysis) (K562 cells [8]; K562, 5 µM): 25.10%
- G1, % (K562 cells [8]; K562, 5 µM): 27.58%
- G2/M, % (K562 cells [8]; K562, 5 µM): 55.16%
- S, % (K562 cells [8]; K562, 5 µM): 17.25%
- Apoptosis, % (cell cycle analysis) (K562 cells [8]; K562, 10 µM): 38.02%
- G1, % (K562 cells [8]; K562, 10 µM): 31.21%
- G2/M, % (K562 cells [8]; K562, 10 µM): 51.08%
- S, % (K562 cells [8]; K562, 10 µM): 17.71%
- normal live cells (living cells) (K562 cells [9]; K562, 1 µM): 83.95%
- normal live cells (living cells) (K562 cells [9]; K562, 5 µM): 65.68%
- normal live cells (living cells) (K562 cells [9]; K562, 10 µM): 56.83%
- IC50 [6]: 26.6 ± 2.31 µM
- ROS Level, % of Control (K562 cell line; K562, 5 µM): 92.84 % of Control
- ROS Level, % of Control (K562 cell line; K562, 10 µM): 76.96 % of Control
- ROS Level, % of Control (K562 cell line; K562, 20 µM): 71.90 % of Control

- IC50 [1]: 22.7 ± 4.76 µM
- IC50 [2]: 4.81 ± 0.21 µM
- IC50 [3]: 4.2 ± 0.14 µM
- IC50 [4]: 2.76 ± 0.06 µM
- IC50 ([5]; read-out: Antiproliferative activity (IC50) over the studied cell cultures): 2 to 27 µM
- IC50 (A549 (lung carcinoma)): > 50 µM
- IC50 [7]: < 0.1 µM
SMILES: Cc1cn(-c2cc(NC(=O)c3ccc(C)c(Nc4nccc(-c5cccnc5)n4)c3)cc(C(F)(F)F)c2)cn1 [Nilotinib, reference compound]
- IC50 [6]: 19.32 ± 0.09 µM
